Laboratory results taken from a compilation of properties of binary mixtures (doi:10.1021/je300384g).

Assay: xn = mol fraction of the nth substance listed
Conditions: 101 kPa

CCCC[N+]1(C)CCCC1.N#C[N-]C#N + CCCO
speed of sound [m/s]
Conditions | 298.15 K | 313.15 K | 328.15 K
x2 = 0 | 1810 | 1773 | –
x2 = 0.0669 | 1796 | 1758 | 1722
x2 = 0.1894 | 1766 | 1728 | 1690
x2 = 0.2912 | – | 1695 | 1657
x2 = 0.3998 | 1693 | – | 1615
x2 = 0.514 | – | 1598 | –
x2 = 0.597 | 1590 | 1549 | 1509
x2 = 0.6944 | 1523 | 1480 | –
x2 = 0.8002 | 1434 | – | 1346
x2 = 0.894 | 1339 | 1292 | 1247
x2 = 0.9437 | 1281 | 1233 | 1186

CCCC[N+]1(C)CCCC1.N#C[N-]C#N + CC(C)O
speed of sound [m/s]
Conditions | 298.15 K | 313.15 K | 328.15 K
x2 = 0 | 1810 | 1773 | 1736
x2 = 0.0466 | – | 1761 | 1724
x2 = 0.0896 | 1789 | – | 1713
x2 = 0.1849 | 1761 | 1723 | 1685
x2 = 0.2967 | 1723 | 1684 | 1646
x2 = 0.4039 | 1676 | 1637 | 1598
x2 = 0.5056 | 1622 | – | 1543
x2 = 0.6018 | 1559 | 1518 | 1478
x2 = 0.6997 | 1483 | 1440 | 1398
x2 = 0.8066 | 1382 | – | 1293
x2 = 0.892 | – | 1240 | –
x2 = 0.9461 | – | 1170 | 1120

CCCCO + CCCC[N+]1(C)CCCC1.N#C[N-]C#N
x1 = 1
Conditions | speed of sound [m/s]
298.15 K | 1240
313.15 K | 1190
328.15 K | 1140

CCCC[N+]1(C)CCCC1.N#C[N-]C#N + CCCCO
speed of sound [m/s]
Conditions | 298.15 K | 313.15 K | 328.15 K
x2 = 0 | – | – | 1736
x2 = 0.0464 | 1799 | 1761 | 1724
x2 = 0.0945 | 1787 | 1749 | 1712
x2 = 0.1898 | 1759 | 1720 | –
x2 = 0.299 | 1720 | 1680 | 1642
x2 = 0.4012 | 1674 | 1635 | 1596
x2 = 0.4989 | 1624 | 1583 | 1544
x2 = 0.5996 | 1564 | 1522 | –
x2 = 0.6947 | 1500 | 1457 | –
x2 = 0.7995 | 1420 | – | 1333
x2 = 0.8965 | 1339 | 1293 | 1247
x2 = 0.9464 | 1295 | 1246 | 1199

CCCO + CCCC[N+]1(C)CCCC1.N#C[N-]C#N
x1 = 1
Conditions | speed of sound [m/s]
298.15 K | 1206
313.15 K | 1155
328.15 K | 1105

CC(C)O + CCCC[N+]1(C)CCCC1.N#C[N-]C#N
x1 = 1
Conditions | speed of sound [m/s]
313.15 K | 1088
328.15 K | 1034
